# Assay results taken from patent US20130023550A1, “PHARMACEUTICAL COMPOSITIONS AND METHODS OF MAKING SAME” (GLAXO WELLCOME MANUFACTURING PTE, LTD, priority 2010, published 2013).
# Read-outs that look alike come from different tables or passages of the source.
# Columns and labels:
# Assay type in all cases: physicochemical
# [1] = Binding constant Kb by fluorescence titration
# Description: The binding constant between a drug substance and complexing agent can be determined using spectroscopic techniques as outlined by Connors and references therein (Kenneth A. Connors: “Binding Constants”, Wiley-Interscience; 1. edition (April 1987)).
# The simplified equilibrium for complexation between pazopanib (034 in Equation 1 shown below) drug substance and13-cyclodextrin sulfobutylether (e.g., Captisol® from Cydex Pharmaceuticals, Inc., Lenexa, Kans.) has been shown as Equation 1, where Kd is the dissociation constant and Kb is the binding constant, 034(s) is solid precipitate for pazopanib, 034(aq) is the aqueous concentration of unbound pazopanib (free state without complexation), Captisol(aq) is the difference between the initial Captisol concentration and the concentration of Captisol in the complexed state with drug substance and pazopanib. […] is the concentration of the complex between pazopanib and 034·Captisol (complexed state).
# A titration experiment is performed using pazopanib (approximately 0.05 mg/ml, 10^-4M) solution by varying the concentration of β-cyclodextrin sulfobutylether solution and measuring the fluorescence intensity (excitation at 342 nm, emission at 375 nm) of the resulting solutions. Initial Captisol concentration are chosen to describe the entire titration curve appropriately and to prevent nucleation and precipitation of pazopanib in the solution. […]
# The measured Fluorescence intensity is directly related to the concentration of the complexed state 034·Captisol(aq) since uncomplexed pazopanib 034(aq) and Captisol Captisol(aq) have negligible fluorescence yield. The measured fluorescence intensities are fitted using a non-linear simplex fitting routine to determine the value of the binding constant Kb. The Fluorescence intensities are plotted as a function of β-cyclodextrin sulfobutylether concentration according to Benesi and Hildebrandt to determine the binding stoichiometry. […]
# Varian Cary Eclipse Fluorescence spectrometer (SN: EL05043801) with a lcm cuvette and orthogonal detection geometry or equivalent. […]
# [2] = Solubility of pazopanib as a function of pH in phosphate buffer; conditions: for solubility at 5 days: phosphate buffer, 25 °C, thermodynamic from solid
# Procedure: • 1) Prep 25 mM phosphate buffer (using monobasic Sodium Phosphate, monohydrate), adjust the buffer solution to different target pH using 1N NaOH/HCl. • 2) Add excessive pazopanib free base to the above solutions (˜20 mg free base per 10 mL buffer solution), vortex the solutions, and mix well. […] Equilibrate the solutions for 5 days with agitation. • 4) After 5 days, measure the pH of the solubility solution immediately, and record the pH, and filter the solution into a test tube using a 0.22um PVDF filter. • 5) Dilute the solution by 1:1 (v/v) with 50:50:0.1 water:acetonitrile:TFA (v/v/v) diluent, and mix well. • 6) The solubility of the solutions is analyzed by HPLC at the detection wavelength of 268 nm.
# Mobile Phase A: 100:0.1 (v/v) Water:TFA Mobile Phase B: 100:0.1 (v/v) Acetonitrile:TFA Column: Phenomenex Develosil RPAqueous-3, C-30, 3 um, 150 mm×4.6 mm Column temperature: 35° C. Flow rate: Isocratic at 1.0 mL/min, A/B=60/40 Detector wavelength: 268 nm Injection volume: 10 μ L Total run time: 4 minutes
# [3] = Calculation of cyclodextrin utility number UCD; conditions: for K: conservative value used for UCD calculations
# Description: The cyclodextrin utility number, UCD, is a dimensionless number used to assess the feasibility of using cyclodextrin in dosage forms. UCD is a lumped parameter consisting of the dose of the drug, the workable amount of CD, the binding constant, and the drug solubility in the absence of CDs. UCD can be used to predict the solubility of ionizable drugs showing a synergistic increase in solubility due to ionization and complexation. See, Rao, V. M., Stella, V. J., J Pharm Sci, 92, 5 927, May 2003. UCD is calculated using the following equation:
# UCD=(KSo/1+KSo)(MCD/MD)(MWD/MWCD)
# where, mD is dose of drug; mCD is dose of cyclodextrin; MWD is molecular weight drug; MWCD is molecular weight cyclodextrin; and Ko is binding constant.
# UCD=(KSo/1+KSo)(mCD/mD)(MWD/MWCD)
# Binding constant, K, as described in Example 4 above.
# Solubility, So, as described in Example 5 above. from Rao, V. M., Stella, V. J., J Pharm Sci, 92, 5 927, May 2003.
# [4] = Osmolality contribution of Captisol
compound,measurement,setting,value
Cc1ccc(Nc2nccc(N(C)c3ccc4c(C)n(C)nc4c3)n2)cc1S(N)(=O)=O [pazopanib],"binding constant, Kb","[1]; pH of 4, temperature of 40° C.",9763 mol⁻¹
same,"binding constant, Kb","[1]; pH of 5, temperature of 25° C.",9130 mol⁻¹
same,"binding constant of pazopanib, K",[1]; with modified cyclodextrin such as Captisol,"approximately 10,000"
same,So,[2]; pH 3.5,4.57e-05 mol/L
same,solubility in phosphate buffer,"[2]; pH 3.5, 25° C.",~20 µg/mL
same,So,[2]; pH 4.0,2.38e-06 mol/L
same,solubility in phosphate buffer,"[2]; pH 4.0, 25° C.",~1.043 µg/mL
same,solubility in phosphate buffer (molar value),"[2]; pH 4.0, 25° C.",~2.38×10^−6
same,solubility in phosphate buffer,"[2]; pH 4.25, 25° C.",~0.534 µg/mL
same,"solubility, So","[2]; pH 4.25, 25° C.",~1.22 µM
same,solubility in phosphate buffer,"[2]; pH 4.5, 25° C.",~0.025 µg/mL
same,"solubility, So","[2]; pH 4.5, 25° C.",~0.0571 µM
same,"solubility, So","[2]; pH 5.0, 25° C.",0.0137 µM
same,solubility at 5 days,"[2]; pH 3.5, aqueous buffer, pH 3.5, 25° C., read-out: solubility in phosphate buffer",20 µg/mL
same,solubility at 5 days,"[2]; pH 3.5, aqueous buffer, pH 3.5, 25° C., read-out: solubility in phosphate buffer (molar value)",45.7 µM
same,solubility at 5 days,"[2]; pH 4, aqueous buffer, pH 4.0, 25° C., read-out: solubility in phosphate buffer",1.04 µg/mL
same,solubility at 5 days,"[2]; pH 4, aqueous buffer, pH 4.0, 25° C., read-out: solubility in phosphate buffer (molar value)",2.38 µM
same,solubility at 5 days,"[2]; pH 4.25, aqueous buffer, pH 4.25, 25° C., read-out: solubility in phosphate buffer",0.534 µg/mL
same,solubility at 5 days,"[2]; pH 4.25, aqueous buffer, pH 4.25, 25° C., read-out: solubility, So",1.22 µM
same,solubility at 5 days,"[2]; pH 4.5, aqueous buffer, pH 4.5, 25° C., read-out: solubility in phosphate buffer",0.025 µg/mL
same,solubility at 5 days,"[2]; pH 4.5, aqueous buffer, pH 4.5, 25° C., read-out: solubility, So",0.0571 µM
same,(KSo)/(1 + KSo),[3]; pH 3.5,0.314
same,K,[3]; pH 3.5,10000 L/mol
same,(KSo)/(1 + KSo),[3]; pH 4.0,0.023
same,K,[3]; pH 4.0,10000 L/mol
same,(KSo)/(1 + KSo),[3]; pH 4.25,0.012
same,K,[3]; pH 4.25,10000 L/mol
same,(KSo)/(1 + KSo),[3]; pH 4.5,0.0006
same,K,[3]; pH 4.5,10000 L/mol
same,(KSo)/(1 + KSo),[3]; pH 5.0,0.0001
same,K,[3]; pH 5.0,10000 L/mol
β-cyclodextrin sulfobutylether [Captisol],Osmolality (mOsm),[4]; Captisol 2 % (w/v),20 mOsm
same,Osmolality (mOsm),[4]; Captisol 3 % (w/v),50 mOsm
same,Osmolality (mOsm),[4]; Captisol 4 % (w/v),80 mOsm
same,Osmolality (mOsm),[4]; Captisol 5 % (w/v),110 mOsm
same,Osmolality (mOsm),[4]; Captisol 6 % (w/v),140 mOsm
same,Osmolality (mOsm),[4]; Captisol 7 % (w/v),170 mOsm
same,Osmolality (mOsm),[4]; Captisol 8 % (w/v),201 mOsm
same,Osmolality (mOsm),[4]; Captisol 9 % (w/v),231 mOsm
same,Osmolality (mOsm),[4]; Captisol 10 % (w/v),261 mOsm
same,Osmolality (mOsm),[4]; Captisol 11 % (w/v),291 mOsm
same,Osmolality (mOsm),[4]; Captisol 12 % (w/v),321 mOsm
same,Osmolality (mOsm),[4]; Captisol 13 % (w/v),351 mOsm
